In patent publication US9227935B2, “Piperidine/piperazine derivatives” (Janssen Pharmaceutica N.V., priority 2007, dated 2016):

Columns and labels:
human DGAT1 = biological target: T1, human DGAT1 (Homo sapiens, UniProt O75907); assay: DGAT1 FlashPlate inhibition assay with DGAT1 membrane preparations; format: biochemical; conditions: IC50 values expressed in M; pIC50 = -logIC50; inhibition of DGAT1 activity
T1 construct: FLAG (N); made in house; host or cells: SF9 insect cells (baculovirus, pFastBac); total cell membranes used as the enzyme source
T1 sequence (O75907 1-488): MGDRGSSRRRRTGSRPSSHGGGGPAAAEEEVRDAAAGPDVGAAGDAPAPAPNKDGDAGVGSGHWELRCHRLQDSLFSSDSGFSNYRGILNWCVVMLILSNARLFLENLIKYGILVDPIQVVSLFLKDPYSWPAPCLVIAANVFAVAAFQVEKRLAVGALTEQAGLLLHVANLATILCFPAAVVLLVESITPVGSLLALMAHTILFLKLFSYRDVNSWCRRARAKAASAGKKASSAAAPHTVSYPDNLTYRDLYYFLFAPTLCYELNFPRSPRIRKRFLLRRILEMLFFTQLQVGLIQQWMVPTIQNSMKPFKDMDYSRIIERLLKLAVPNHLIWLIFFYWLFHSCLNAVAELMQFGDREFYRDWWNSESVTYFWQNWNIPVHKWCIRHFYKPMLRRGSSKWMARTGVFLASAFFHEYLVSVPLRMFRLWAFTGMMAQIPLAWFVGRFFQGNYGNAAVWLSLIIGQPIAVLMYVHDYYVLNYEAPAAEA
Outline: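 Membranes from Sf9 cells expressing N-FLAG human DGAT1 were incubated 120 min at 37 °C with 50 μM DAG in PC/PS micelles and 8.4 μM [3H]-oleoylCoA in Tris pH 7.4, MgCl2, EDTA and 0.2% BSA. The reaction was stopped with N-ethylmaleimide, and triacylglycerol was read by FlashPlate radioluminescence and normalised to enzyme and no-enzyme controls.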

| Compound | melting point | IC50 (human DGAT1) |
| --- | --- | --- |
| O=C(Nc1ccc(N2CCN(C(=S)Nc3c(Cl)cccc3Cl)CC2)cc1)c1ccccc1-c1ccc(C(F)(F)F)cc1 [Compound 8] | 224.5 °C | 214 nM |
| O=C(Nc1ccc(N2CCN(C(=O)Nc3c(Cl)cccc3Cl)CC2)cc1)c1ccccc1-c1ccc(C(F)(F)F)cc1 [Compound 9] | 289 °C | 30.2 nM |
| O=C(Nc1cccc(N2CCCC2)c1)c1ccc(N2CCN(C(=O)Nc3c(Cl)cc(CCN4CCCC4)cc3Cl)CC2)cc1 [Compound 129] | – | 5.37 nM |
| O=C(Nc1cccc(N2CCCC2)c1)c1ccc(N2CCN(C(=O)Nc3c(Cl)cc(CN4CCCC4)cc3Cl)CC2)cc1 [Compound 130] | – | 7.24 nM |
| O=C(Nc1cccc(N2CCCC2)c1)c1ccc(N2CCN(C(=O)Cc3c(Cl)cccc3Cl)CC2)cc1 [Compound 131] | – | 30.9 nM |
| CN1CCN(C(=O)Cc2cc(Cl)c(NC(=O)N3CCN(c4ccc(NC(=O)c5cccc(N6CCCC6)c5)cc4)CC3)c(Cl)c2)CC1 [Compound 136] | 254.77 °C | 1.82 nM |
| CC(C)N(Cc1cc(Cl)c(NC(=O)N2CCN(c3ccc(NC(=O)c4cccc(N5CCCC5)c4)cc3)CC2)c(Cl)c1)C(C)C [Compound 137] | 270.85 °C | 4.17 nM |
| CCOC(=O)Cc1cccc(C(=O)Nc2ccc(N3CCN(C(=O)Nc4c(Cl)cc(CN5CCCCC5)cc4Cl)CC3)cc2)c1 [Compound 138] | – | 11.5 nM |
| O=C(Nc1ccc(N2CCN(C(=O)Oc3c(Cl)cccc3Cl)CC2)cc1)c1cccc(N2CCCC2)c1 [Compound 139] | 212.69 °C | 6.46 nM |
| COC(=O)c1cccc(C(=O)Nc2ccc(N3CCN(C(=O)Nc4c(Cl)cc(CN5CCCC5)cc4Cl)CC3)cc2)c1 [Compound 140] | 247.52 °C | 12.6 nM |
| O=C(O)Cc1cccc(C(=O)Nc2ccc(N3CCN(C(=O)Nc4c(Cl)cc(CN5CCCCC5)cc4Cl)CC3)cc2)c1 [Compound 143] | – | 3310 nM |
| COC(=O)c1cccc(C(=O)Nc2ccc(N3CCN(C(=O)Cc4c(Cl)cc(CN5CCCC5)cc4Cl)CC3)cc2)c1 [Compound 145] | – | 112 nM |
| O=C(O)c1cccc(C(=O)Nc2ccc(N3CCN(C(=O)Cc4c(Cl)cc(CN5CCCC5)cc4Cl)CC3)cc2)c1 [Compound 146] | – | 3390 nM |
